Converted amounts (≈) assume the structure as drawn.
What was measured:
Type in all cases: functional
[1] = test system: Escherichia coli; assay: Antibacterial activity against Escherichia coli ATCC 25922
[2] = test system: Escherichia coli; assay: Antibacterial activity against Escherichia coli 0157:H07
[3] = test system: Escherichia coli; assay: Antibacterial activity against vancomycin-, ciprofloxacin-, gentamicin-sensitive Escherichia coli 1269640
[4] = test system: Escherichia coli; assay: Antibacterial activity against vancomycin-, ciprofloxacin-, gentamicin-resistant Escherichia coli 1269620
[5] = test system: Escherichia coli; assay: Antibacterial activity against vancomycin-, ciprofloxacin-, gentamicin-resistant Escherichia coli 1269621
[6] = test system: Escherichia coli; assay: Antibacterial activity against vancomycin-, ciprofloxacin-, gentamicin-resistant Escherichia coli 1269652
[7] = test system: Escherichia coli; assay: Antibacterial activity against vancomycin-, ciprofloxacin-, gentamicin-resistant Escherichia coli 1269653
[8] = test system: Staphylococcus aureus; assay: Antibacterial activity against Staphylococcus aureus ATCC […]
[9] = test system: Staphylococcus aureus; assay: Antibacterial activity against vancomycin-, ciprofloxacin-, gentamicin-resistant Staphylococcus aureus 1269615
[10] = test system: Staphylococcus aureus; assay: Antibacterial activity against vancomycin-intermediate and ciprofloxacin-, gentamicin-resistant Staphylococcus aureus 1269616
[11] = test system: Staphylococcus aureus; assay: Antibacterial activity against vancomycin-, ciprofloxacin-, gentamicin-resistant Staphylococcus aureus 1269617
[12] = test system: Staphylococcus aureus; assay: Antibacterial activity against vancomycin-intermediate and ciprofloxacin-, gentamicin-resistant Staphylococcus aureus 1269618
[13] = test system: Staphylococcus aureus; assay: Antibacterial activity against vancomycin-sensitive and oxymycin-, ciprofloxacin-, gentamicin-resistant Staphylococcus aureus 9269619
[14] = test system: Staphylococcus aureus; assay: Antibacterial activity against oxymycin-sensitive Staphylococcus aureus 1269669
[15] = test system: Staphylococcus aureus; assay: Antibacterial activity against oxymycin-sensitive Staphylococcus aureus 1269670
[16] = test system: Staphylococcus capitis; assay: Antibacterial activity against Staphylococcus capitis 1269682
[17] = test system: Staphylococcus epidermidis; assay: Antibacterial activity against Staphylococcus epidermidis 1269663
[18] = test system: Staphylococcus epidermidis; assay: Antibacterial activity against oxymycin-, gentamicin-, levofloxacin-resistant Staphylococcus epidermidis 1269675
[19] = test system: Staphylococcus epidermidis; assay: Antibacterial activity against oxymycin-, gentamicin-, levofloxacin-resistant Staphylococcus epidermidis 1269676
[20] = test system: Staphylococcus epidermidis; assay: Antibacterial activity against oxymycin and gentamicin-resistant Staphylococcus epidermidis 1269677
[21] = test system: Staphylococcus epidermidis; assay: Antibacterial activity against oxymycin-, gentamicin-, levofloxacin-resistant Staphylococcus epidermidis 1269680
[22] = test system: Staphylococcus warneri; assay: Antibacterial activity against Staphylococcus warneri 1269686
[23] = test system: Staphylococcus aureus; assay: Antibacterial activity against Staphylococcus aureus ATCC 13709

SMILES: NCC[C@H](O)C(=O)N[C@@H]1C[C@H](N)[C@@H](O[C@H]2O[C@H](CN)[C@@H](O)[C@H](O)[C@H]2O)[C@H](O)[C@H]1O[C@H]1O[C@H](CO)[C@@H](O)[C@H](N)[C@H]1O [AMIKACIN]
- MIC [1]: 2 µg/mL (≈ 3.42 µM)
- MIC [2]: 1 µg/mL (≈ 1.71 µM)
- MIC [3]: 8 µg/mL (≈ 13.7 µM)
- MIC [4]: 2 µg/mL (≈ 3.42 µM)
- MIC [5]: 2 µg/mL (≈ 3.42 µM)
- MIC [6]: 64 µg/mL (≈ 109 µM)
- MIC [7]: 8 µg/mL (≈ 13.7 µM)
- MIC [8]: 2 µg/mL (≈ 3.42 µM)
- MIC [9]: 16 µg/mL (≈ 27.3 µM)
- MIC [10]: 16 µg/mL (≈ 27.3 µM)
- MIC [11]: 8 µg/mL (≈ 13.7 µM)
- MIC [12]: 16 µg/mL (≈ 27.3 µM)
- MIC [13]: 16 µg/mL (≈ 27.3 µM)
- MIC [14]: 2 µg/mL (≈ 3.42 µM)
- MIC [15]: 1 µg/mL (≈ 1.71 µM)
- MIC [16]: 0.5 µg/mL (≈ 0.854 µM)
- MIC [17]: 0.8 µg/mL (≈ 1.37 µM)
- MIC [18]: 8 µg/mL (≈ 13.7 µM)
- MIC [19]: 4 µg/mL (≈ 6.83 µM)
- MIC [20]: 4 µg/mL (≈ 6.83 µM)
- MIC [21]: 8 µg/mL (≈ 13.7 µM)
- MIC [22]: < 0.25 µg/mL

SMILES: NC[C@@H]1O[C@H](O[C@H]2[C@@H](OCCNCCc3ccccc3)[C@@H](O[C@H]3[C@@H](O)[C@@H](N)C[C@@H](N)[C@H]3O[C@H]3O[C@H](CO)CC[C@H]3N)O[C@@H]2CO)[C@H](N)[C@@H](O)[C@@H]1O
- MIC [1]: 40 µg/mL (≈ 54.7 µM)
- MIC [23]: 1 µg/mL (≈ 1.37 µM)

SMILES: NC[C@@H]1O[C@H](O[C@H]2[C@@H](O)[C@H](O[C@@H]3[C@@H](O)[C@H](N)C[C@H](N)[C@H]3O[C@H]3O[C@H](CO)CC[C@H]3N)O[C@@H]2CO)[C@H](N)[C@@H](O)[C@@H]1O
- MIC [1]: 20 µg/mL (≈ 34.3 µM)
- MIC [23]: 5 µg/mL (≈ 8.57 µM)

SMILES: NC[C@@H]1O[C@H](O[C@H]2[C@@H](O)[C@H](O[C@@H]3[C@@H](O)[C@H](N)C[C@H](N)[C@H]3O[C@H]3O[C@H](CN)[C@@H](O)[C@H](O)[C@H]3N)O[C@@H]2CO)[C@H](N)[C@@H](O)[C@@H]1O [FRAMYCETIN]
- MIC [1]: 3 µg/mL (≈ 4.88 µM)
- MIC [23]: 1 µg/mL (≈ 1.63 µM)

SMILES: NCC[C@H](O)C(=O)N[C@@H]1C[C@H](N)[C@@H](O[C@H]2O[C@H](CO)[C@@H](O)[C@H](O)[C@H]2N)[C@H](O[C@@H]2O[C@H](CO)[C@@H](O[C@H]3O[C@@H](CN)[C@@H](O)[C@H](O)[C@H]3N)[C@H]2O)[C@H]1O
- MIC [1]: 8 µg/mL (≈ 11.2 µM)
- MIC [23]: 1.3 µg/mL (≈ 1.81 µM)
- MIC [2]: 8 µg/mL (≈ 11.2 µM)
- MIC [3]: 16 µg/mL (≈ 22.3 µM)
- MIC [4]: 8 µg/mL (≈ 11.2 µM)
- MIC [5]: 8 µg/mL (≈ 11.2 µM)
- MIC [6]: 32 µg/mL (≈ 44.6 µM)
- MIC [7]: 8 µg/mL (≈ 11.2 µM)
- MIC [8]: 4 µg/mL (≈ 5.58 µM)
- MIC [9]: > 128 µg/mL
- MIC [10]: > 128 µg/mL
- MIC [11]: > 128 µg/mL
- MIC [12]: > 128 µg/mL
- MIC [13]: > 128 µg/mL
- MIC [14]: 4 µg/mL (≈ 5.58 µM)
- MIC [15]: 4 µg/mL (≈ 5.58 µM)
- MIC [16]: 0.5 µg/mL (≈ 0.698 µM)
- MIC [17]: 1 µg/mL (≈ 1.4 µM)
- MIC [18]: 64 µg/mL (≈ 89.3 µM)
- MIC [19]: 0.5 µg/mL (≈ 0.698 µM)
- MIC [20]: 16 µg/mL (≈ 22.3 µM)
- MIC [21]: 1 µg/mL (≈ 1.4 µM)
- MIC [22]: 0.25 µg/mL (≈ 0.349 µM)

SMILES: CN[C@@H]1[C@@H](O)[C@@H](O[C@@H]2[C@@H](O)[C@H](O[C@H]3O[C@H]([C@@H](C)NC)CC[C@H]3N)[C@@H](N)C[C@H]2N)OC[C@]1(C)O [GENTAMICIN C1]
- MIC [1]: 1 µg/mL (≈ 2.09 µM)
- MIC [2]: 0.5 µg/mL (≈ 1.05 µM)
- MIC [3]: 4 µg/mL (≈ 8.38 µM)
- MIC [4]: 64 µg/mL (≈ 134 µM)
- MIC [5]: 64 µg/mL (≈ 134 µM)
- MIC [6]: > 128 µg/mL
- MIC [7]: > 128 µg/mL
- MIC [8]: 0.5 µg/mL (≈ 1.05 µM)
- MIC [9]: 32 µg/mL (≈ 67 µM)
- MIC [10]: 64 µg/mL (≈ 134 µM)
- MIC [11]: 32 µg/mL (≈ 67 µM)
- MIC [12]: 64 µg/mL (≈ 134 µM)
- MIC [13]: 128 µg/mL (≈ 268 µM)
- MIC [14]: 0.25 µg/mL (≈ 0.523 µM)
- MIC [15]: 0.25 µg/mL (≈ 0.523 µM)
- MIC [16]: 0.12 µg/mL (≈ 0.251 µM)
- MIC [17]: < 0.12 µg/mL
- MIC [18]: 32 µg/mL (≈ 67 µM)
- MIC [19]: 32 µg/mL (≈ 67 µM)
- MIC [20]: 16 µg/mL (≈ 33.5 µM)
- MIC [21]: 64 µg/mL (≈ 134 µM)
- MIC [22]: < 0.12 µg/mL

SMILES: NC[C@@H]1O[C@H](O[C@H]2[C@@H](OCCNCCc3ccccc3)[C@H](O[C@@H]3[C@@H](O)[C@H](N)C[C@H](N)[C@H]3O[C@H]3O[C@H](CO)[C@@H](O)[C@H](O)[C@H]3N)O[C@@H]2CO)[C@H](N)[C@@H](O)[C@@H]1O
- MIC [1]: 3 µg/mL (≈ 3.93 µM)
- MIC [23]: 0.3 µg/mL (≈ 0.393 µM)

SMILES: NCC[C@@H](O)C(=O)N[C@H]1C[C@H](N)[C@@H](O[C@H]2O[C@H](CO)[C@@H](O)[C@H](O)[C@H]2N)[C@@H](O[C@H]2O[C@H](CO)[C@@H](O[C@H]3O[C@@H](CN)[C@@H](O)[C@H](O)[C@H]3N)[C@H]2OCCNCCc2ccccc2)[C@H]1O
- MIC [1]: 2 µg/mL (≈ 2.31 µM)
- MIC [23]: 0.6 µg/mL (≈ 0.694 µM)
- MIC [2]: 1 µg/mL (≈ 1.16 µM)
- MIC [3]: 4 µg/mL (≈ 4.63 µM)
- MIC [4]: 1 µg/mL (≈ 1.16 µM)
- MIC [5]: 2 µg/mL (≈ 2.31 µM)
- MIC [6]: 8 µg/mL (≈ 9.26 µM)
- MIC [7]: 2 µg/mL (≈ 2.31 µM)
- MIC [8]: 0.25 µg/mL (≈ 0.289 µM)
- MIC [9]: 64 µg/mL (≈ 74.1 µM)
- MIC [10]: 128 µg/mL (≈ 148 µM)
- MIC [11]: 32 µg/mL (≈ 37 µM)
- MIC [12]: 128 µg/mL (≈ 148 µM)
- MIC [13]: > 128 µg/mL
- MIC [14]: < 0.12 µg/mL
- MIC [15]: < 0.12 µg/mL
- MIC [16]: < 0.12 µg/mL
- MIC [17]: < 0.12 µg/mL
- MIC [18]: 16 µg/mL (≈ 18.5 µM)
- MIC [19]: < 0.12 µg/mL
- MIC [20]: < 0.12 µg/mL
- MIC [21]: < 0.12 µg/mL
- MIC [22]: < 0.12 µg/mL

SMILES: NCC[C@H](O)C(=O)N[C@@H]1C[C@H](N)[C@@H](O[C@H]2O[C@H](CN)[C@@H](O)[C@H](O)[C@H]2N)[C@H](O[C@@H]2O[C@H](CO)[C@@H](O[C@H]3O[C@@H](CN)[C@@H](O)[C@H](O)[C@H]3N)[C@H]2O)[C@H]1O
- MIC [1]: 2.5 µg/mL (≈ 3.49 µM)
- MIC [23]: 2.5 µg/mL (≈ 3.49 µM)

SMILES: NCC[C@H](O)C(=O)N[C@@H]1C[C@H](N)[C@@H](O[C@H]2O[C@H](CO)CC[C@H]2N)[C@H](O[C@@H]2O[C@H](CO)[C@@H](O[C@H]3O[C@@H](CN)[C@@H](O)[C@H](O)[C@H]3N)[C@H]2OCCNCCc2ccccc2)[C@H]1O
- MIC [1]: 8 µg/mL (≈ 9.62 µM)
- MIC [23]: 0.6 µg/mL (≈ 0.721 µM)
- MIC [2]: 1 µg/mL (≈ 1.2 µM)
- MIC [3]: 8 µg/mL (≈ 9.62 µM)
- MIC [4]: 4 µg/mL (≈ 4.81 µM)
- MIC [5]: 4 µg/mL (≈ 4.81 µM)
- MIC [6]: 16 µg/mL (≈ 19.2 µM)
- MIC [7]: 8 µg/mL (≈ 9.62 µM)
- MIC [8]: > 0.12 µg/mL
- MIC [9]: 0.25 µg/mL (≈ 0.3 µM)
- MIC [10]: 0.5 µg/mL (≈ 0.601 µM)
- MIC [11]: 0.25 µg/mL (≈ 0.3 µM)
- MIC [12]: 0.5 µg/mL (≈ 0.601 µM)
- MIC [13]: 1 µg/mL (≈ 1.2 µM)
- MIC [14]: 0.25 µg/mL (≈ 0.3 µM)
- MIC [15]: 0.25 µg/mL (≈ 0.3 µM)
- MIC [16]: < 0.12 µg/mL
- MIC [17]: < 0.12 µg/mL
- MIC [18]: < 0.12 µg/mL
- MIC [19]: < 0.12 µg/mL
- MIC [20]: < 0.12 µg/mL
- MIC [21]: < 0.12 µg/mL
- MIC [22]: < 0.12 µg/mL

SMILES: NC[C@@H]1O[C@H](O[C@H]2[C@@H](O)[C@H](O[C@@H]3[C@@H](O)[C@H](N)C[C@H](N)[C@H]3O[C@H]3O[C@H](CO)[C@@H](O)[C@H](O)[C@H]3N)O[C@@H]2CO)[C@H](N)[C@@H](O)[C@@H]1O [PAROMOMYCIN]
- MIC [1]: 3 µg/mL (≈ 4.87 µM)
- MIC [23]: 1 µg/mL (≈ 1.62 µM)
